Laboratory results from ChEMBL document CHEMBL3885861, “Open TG-GATES”.

Organism: Rattus norvegicus
Test: Open TG-GATES - Regimen: Single
Type: toxicity, organism-based, Sprague-Dawley
Parameters: regimen Single, gender Male, age 6 weeks
Details: in vivo, iv, 10 mg/kg, route intravenous injection, dose level High; for Na / PL / RALB / TBIL / TC / TG / TP / gamma-GTP / A/G / ALP / ALT / AST / BUN / CRE / Ca / Cl / DBIL / GLC / IP / K / LDH: tissue Plasma; for APTT / Fbg / Hb / Ht / MCH / MCHC / MCV / PT / Plat / RBC / Ret / WBC: tissue Blood; for KIDNEY_L / KIDNEY_R / KIDNEY_TOTAL: tissue Kidney; for LIVER: tissue Liver

C[C@@H]1C[C@@H]([C@H](O)CC2CC(=O)NC(=O)C2)C(=O)[C@@H](C)C1 [CYCLOHEXIMIDE]
Na (6 h): 138.8 meq/L
PL (6 h): 65 mg/dL
RALB (6 h): 2.8 g/dL
TBIL (6 h): 0.002 mg/dL
TC (6 h): 39 mg/dL
TG (6 h): 20.2 mg/dL
TP (6 h): 5.3 g/dL
gamma-GTP (6 h): 3.8 IU/L
TERMINAL_BW (9 h): 206.3 g
APTT (9 h): 47.2 s
Fbg (9 h): 228.4 mg/dL
Hb (9 h): 18.2 g/dL
Ht (9 h): 56.4%
MCH (9 h): 21.7 pg
MCHC (9 h): 32.3%
MCV (9 h): 67.4 fL
PT (9 h): 40.1 s
Plat (9 h): 112.8 x10_4/uL
RBC (9 h): 836.4 x10_4/ul
Ret (9 h): 8.9%
WBC (9 h): 386.2 x10_2/uL
KIDNEY_L (9 h): 1.1 g
KIDNEY_R (9 h): 1.1 g
KIDNEY_TOTAL (9 h): 2.1 g
LIVER (9 h): 7.9 g
A/G (9 h): 1.4
ALP (9 h): 1345.4 IU/L
ALT (9 h): 87.8 IU/L
AST (9 h): 291.8 IU/L
BUN (9 h): 94.4 mg/dL
CRE (9 h): 0.3 mg/dL
Ca (9 h): 6.6 mg/dL
Cl (9 h): 109 meq/L
DBIL (9 h): 0.0125 mg/dL
GLC (9 h): 215.2 mg/dL
IP (9 h): 17.4 mg/dL
K (9 h): 6.6 meq/L
LDH (9 h): 1399 IU/L
Na (9 h): 136 meq/L
PL (9 h): 69.6 mg/dL
RALB (9 h): 2.9 g/dL
TBIL (9 h): 0.01 mg/dL
TC (9 h): 34.4 mg/dL
TG (9 h): 61.4 mg/dL
TP (9 h): 5.2 g/dL
gamma-GTP (9 h): 3 IU/L
TERMINAL_BW (24 h): 198.6 g
APTT (24 h): 70.4 s
Fbg (24 h): 149.5 mg/dL
Hb (24 h): 16.4 g/dL
Ht (24 h): 49.4%
MCH (24 h): 20.9 pg
MCHC (24 h): 33.3%
MCV (24 h): 62.8 fL
PT (24 h): 35.1 s
Plat (24 h): 81.8 x10_4/uL
RBC (24 h): 784.5 x10_4/ul
Ret (24 h): 7.3%
WBC (24 h): 413.2 x10_2/uL
KIDNEY_L (24 h): 1 g
KIDNEY_R (24 h): 1 g
KIDNEY_TOTAL (24 h): 2 g
LIVER (24 h): 8 g
A/G (24 h): 1.3
ALP (24 h): 903.5 IU/L
ALT (24 h): 57.5 IU/L
AST (24 h): 192 IU/L
BUN (24 h): 106 mg/dL
CRE (24 h): 0.3 mg/dL
Ca (24 h): 7 mg/dL
Cl (24 h): 112 meq/L
DBIL (24 h): 0.02 mg/dL
GLC (24 h): 134 mg/dL
IP (24 h): 13.4 mg/dL
K (24 h): 5.3 meq/L
LDH (24 h): 1196.5 IU/L
Na (24 h): 141.5 meq/L
PL (24 h): 80 mg/dL
RALB (24 h): 2.5 g/dL
TBIL (24 h): 0.045 mg/dL
TC (24 h): 59 mg/dL
TG (24 h): 66.5 mg/dL
TP (24 h): 4.5 g/dL
gamma-GTP (24 h): 4 IU/L
